# Tested on: Ribosomal RNA A-site
# Assay: Binding affinity for the 16S ribosomal RNA A-site of Escherichia coli
# Format: nucleic-acid assay
row,SMILES,Kd [µM]
1,O=[N+]([O-])c1ccc2[nH]c(-c3ccncc3)nc2c1,> 1000
2,O=[N+]([O-])c1ccc(Cn2c(C3CCNCC3)nc3cc(Cl)c(Cl)cc32)cc1,241
3,O=[N+]([O-])c1ccc2[nH]c(C3CCCCC3)nc2c1,> 1000
4,N[C@H]1CC[C@@H](c2nc3cc([N+](=O)[O-])ccc3[nH]2)C1,221
5,FC(F)(F)c1ccc(Cn2c(C3CCNCC3)nc3cc(Cl)c(Cl)cc32)cc1,214
6,FC(F)(F)c1ccc(Cn2c(C3CCNCC3)nc3cc(Cl)c(Cl)cc32)c(C(F)(F)F)c1,159
7,Clc1ccc2scc(Cn3c(C4CCNCC4)nc4cc(Cl)c(Cl)cc43)c2c1,> 1000
8,c1nc2nc(C3CCNCC3)nc-2c[nH]1,914
9,Nc1ccc(-c2nc3cc([N+](=O)[O-])ccc3[nH]2)cc1,> 1000
10,Cc1cc2[nH]c(C3CCNCC3)nc2cc1Cl,380
11,O=[N+]([O-])c1ccc2[nH]c(C3CCNCC3)nc2c1,308
12,Fc1c(F)c(F)c(Cn2c(C3CCNCC3)nc3cc(Cl)c(Cl)cc32)c(F)c1F,237
13,Clc1cc2nc(C3CCNCC3)n(Cc3cccc(I)c3)c2cc1Cl,405
14,CC(C)(C)c1ccc(Cn2c(C3CCNCC3)nc3cc(Cl)c(Cl)cc32)cc1,575
15,c1ccc2sc(C3CCNCC3)nc2c1,> 1000
16,CCCCn1c(C2CCNCC2)nc2cc(Cl)c(Cl)cc21,278
17,COC(=O)Cn1c(C2CCNCC2)nc2cc(Cl)c(Cl)cc21,301
18,Clc1cc2nc(C3CCNCC3)[nH]c2cc1Cl,174
19,CC(=O)N1CCC(c2nc3cc([N+](=O)[O-])ccc3[nH]2)CC1,> 1000
20,Nc1ccc2[nH]c(C3CCNCC3)nc2c1,500
21,FC(F)(F)c1ccc2[nH]c(C3CCNCC3)nc2c1,281
22,O=[N+]([O-])c1ccc2[nH]c(-c3cccnc3)nc2c1,> 1000
23,Brc1ccc2[nH]c(C3CCNCC3)nc2c1,361
24,Clc1cc2nc(C3CCNCC3)n(-c3ncccn3)c2cc1Cl,672

row,SMILES,Kd [µM]
1,Cc1ccc(S(=O)(=O)n2c(C3CCNCC3)nc3cc(Cl)c(Cl)cc32)cc1,> 1000
2,c1ccc2[nH]c(C3CCNCC3)nc2c1,108
3,Clc1cc2nc(C3CCNCC3)n(Cc3ccccc3Br)c2cc1Cl,593
4,Fc1c(F)c(C(F)(F)F)c(F)c(F)c1Cn1c(C2CCNCC2)nc2cc(Cl)c(Cl)cc21,117
5,"N[C@H]1C(O)O[C@H](CO)C(O)[C@@H]1O (single isomer, unassigned) [GLUCOSAMINE]",~1000
6,Clc1ccc2[nH]c(C3CCNCC3)nc2c1,508
7,c1cc2nc(C3CCNCC3)nc-2c[nH]1,110
8,O=[N+]([O-])c1ccc(-n2c(C3CCNCC3)nc3cc(Cl)c(Cl)cc32)c([N+](=O)[O-])c1,243
9,Clc1cc2nc(C3CCNCC3)n(Cc3cccnc3)c2cc1Cl,67
10,Clc1cc2nc(C3CCNCC3)n(Cc3ccncc3)c2cc1Cl,60
11,Nc1cccc(-c2nc3cc([N+](=O)[O-])ccc3[nH]2)c1,> 1000
12,COc1ccc2[nH]c(C3CCNCC3)nc2c1,588
13,N[C@H]1CC[C@@H](c2nc3cc([N+](=O)[O-])ccc3[nH]2)CC1,123
14,Clc1cc2nc(C3CCNCC3)n(Cc3ccc(Br)cc3)c2cc1Cl,434
15,Cn1c(C2CCNCC2)nc2cc(Cl)c(Cl)cc21,239
16,Cc1ccc(OC(=O)n2c(C3CCNCC3)nc3cc(Cl)c(Cl)cc32)cc1,> 1000
17,O=C(O)Cn1c(C2CCNCC2)nc2cc(Cl)c(Cl)cc21,> 1000
18,COC(=O)c1ccc(Cn2c(C3CCNCC3)nc3cc(Cl)c(Cl)cc32)cc1,224
19,Clc1cc2nc(C3CCNCC3)n(Cc3ccc(I)cc3)c2cc1Cl,198
20,CN1CCC(c2nc3cc([N+](=O)[O-])ccc3[nH]2)CC1,> 1000
21,c1c[nH]c2nc(C3CCNCC3)nc-2c1,535
22,Cc1ccc2[nH]c(C3CCNCC3)nc2c1,439
23,O=[N+]([O-])c1cc(C(F)(F)F)ccc1-n1c(C2CCNCC2)nc2cc(Cl)c(Cl)cc21,122
24,NC1CCCC(c2nc3cc([N+](=O)[O-])ccc3[nH]2)C1 (stereo not drawn),105

# — ChEMBL document CHEMBL1147429, “Synthesis and evaluation of novel bacterial rRNA-binding benzimidazoles by mass spectrometry” (Bioorg Med Chem Lett, 2004)
